Data published in patent publication US5260327A, “Methods for inhibiting the proliferation of brain and hepatic metastases by using lonidamine” (priority 1992, dated 1993).

How the values were obtained:
[1] = tested on: cultured tumor cell lines; conditions: cited from earlier work
HeLa cells = assay: Effect of gossypol on cell multiplication at 37° C.; format: cell-based, human
Method: (§1) Experiments were carried out with HeLa S-3 cells grown in Eagle's minimal essential medium supplemented with 10% fetal calf serum.
(§2) The pH of the culture medium was adjusted by varying the CO2 content of the gas phase within the flasks. The buffering system of Eagle's minimal essential medium consisted of 26 mM NaHCO3 at 5% CO2 for neutral pH of 7.4. To obtain a pH of 6.7, for example, the flasks were flushed with the gas mixtures containing 26% CO2. The pH of the culture medium was monitored throughout the treatment procedures by sealing a combination electrode in a treatment vessel and monitored with temperature-compensated digital pH meter.
(§3) Gossypol was dissolved in DMSO immediately prior to experiments. DMSO produced no enhancement of hyperthermic cytotoxicity with the range studied.
Preliminary experiments were carried out to determine the effect of gossypol on cell division. Exponentially growing HeLa cells were exposed to the drug for 72 hours at 37° C. Control cells grew exponentially with a doubling time of approximately 19 hours.

HeLa S-3 cells [2] = assay: Effect of gossypol on cell survival at elevated temperature, pH and glucose conditions; format: cell-based, human; conditions: for viability at 10 µg/mL: Homo sapiens, HeLa S3
Method: as §1
Plated monolayer cells were heated within 0.05° of the desired temperature by totally immersing plastic culture flasks in a heated water bath. Water bath temperatures were verified by a National Bureau of Standards thermometer.
as §2
(§4) The "glucose-deprived" medium was prepared by adding 10% dialyzed fetal calf serum to the culture medium without glucose. The dialyzed fetal calf serum contained less than 1 mg glucose per 100 ml so that the final concentration of glucose in the "glucose-deprived" medium was less than 0.001 mg per ml.
as §3
For example, at 10 μg/m. and 2 hours exposure at 42° C., the cells survival is reduced to 1% under acidic condition. Heat treatment alone reduces the cell survival to only 50% of the control.
Since gossypol has been reported to interfere with cellular energy metabolism, experiments were performed to determine the influence of glucose on the cytotoxic effect of gossypol. […] The survival of glucose-fed cells exposed to the same treatment was approximately 10% while that of glucose-deprived cells can further enhance the cytotoxic effect of gossypol at elevated temperature.

[3] = tested on: glycolytic and mitochondrial bound enzymes; conditions: cited from earlier work
spermatogenesis = conditions: in vivo; cited from earlier work
testicular tissues = conditions: cited from earlier work
MCA mammary carcinoma = assay: Radiation enhancement in the transplanted MCA mammary carcinoma, with or without mild hyperthermia; format: in vivo, murine; conditions: even at the LD10 dosage
Method: Nicotinamide was administered intraperitoneal one (1) […] before irradiation. Localized mild hyperthermia (41° C.) was applied for one (1) hour immediately prior to irradiation.

cells = conditions: high doses; cited from earlier work
HeLa S-3 cells [4] = assay: cells; format: cell-based, human; conditions: for viability at 10 µg/mL: Homo sapiens, HeLa S3, 24 hours
Method: Experiments were carried out with HeLa S-3 cells grown in Eagle's minimal essential medium supplemented with 10% fetal calf serum. […] No antifungal agent was used.
Cell survival was assayed by colony-forming ability of plated single cells to obtain quantitative dose-survival curves. Details of cloning experiments including colony court have been described elsewhere (See, e.g., Kim et al. supra).
Plated a synchronous monolayer cells were heated to within 0.05° C. of the desired temperature by totally immersing plastic culture flasks in a water bath. Water bath temperatures were verified by a National Bureau of Standards calibrated thermometer.
The pH of the culture medium was adjusted by varying the CO2 content of the gas phase within the flasks. […] The pH of the culture medium was monitored throughout the treatment procedures by sealing a combination electrode in a treatment vessel and monitored with a temperature-compensated digital pH meter.
as §4

[5] = human cancer cells (HeLa), heated
[6] = acidic pH, glucose-deprived cells

Cc1cc2c(C(C)C)c(O)c(O)c(C=O)c2c(O)c1-c1c(C)cc2c(C(C)C)c(O)c(O)c(C=O)c2c1O [gossypol]
anti-tumor effects [1]: anti-tumor effects against cultured tumor cell lines
growth rate versus control (HeLa cells; 1.25 μg/ml): the same as that of the control cells
doubling time (HeLa cells; 2.5 μg/ml, incubation times greater than 24 hours): a lengthening of doubling time was observed
growth curve versus control (HeLa cells; 2.5 μg/ml, initial 24 hours): not significantly different from the control
cell growth (multiplication) (HeLa cells; 5, 10 and 20 μg/ml, 72 hours): grew exponentially for the first 24 hour period and then remained stationary
cytotoxicity, glucose deprivation at 37° C. (HeLa S-3 cells [2]; 10 μg/ml, glucose-deprived, 37° C., pH 7.4): no apparent cytotoxicity
cell killing, glucose deprivation at 42° C. (HeLa S-3 cells [2]; 10 μg/ml, glucose-deprived, 42° C. for 4 hours, pH 7.4): a substantial increase in cell killing
drug toxicity (cell survival) (HeLa S-3 cells [2]; 5 and 10 μg/ml, up to 4 hours, 37° C., acidic or neutral conditions): no appreciable drug toxicity
viability at 10 µg/mL (HeLa S-3 cells [2]; 10 μg/ml, 2 hours exposure at 42° C., acidic condition (heat alone: 50% of control), read-out: cell survival): 1%
viability at 10 µg/mL (HeLa S-3 cells [2]; 10 μg/ml, glucose-fed, 42° C. for 4 hours, pH 7.4, read-out: survival of glucose-fed cells): ~10%
pH dependence of cytotoxic effect of hyperthermia on drug-treated cells (HeLa S-3 cells [2]; elevated temperature, acidic vs neutral): most pronounced under acidic conditions
hyperthermic sensitization (HeLa S-3 cells [2]; [5]): effective hyperthermic sensitizers of human cancer cells
enzyme inhibition [3]: inhibition of glycolytic and mitochondrial bound enzymes
inhibition of spermatogenesis (spermatogenesis): inhibitor of spermatogenesis
toxicity to testicular tissues (testicular tissues; in vivo): selectively toxic to testicular tissues
effect on other tissues (testicular tissues; non-testicular tissues): no observable effect on other tissues

O=C(O)c1cccnc1 [nicotinic acid]
radiation enhancement, MCA mammary tumor, nicotinic acid (MCA mammary carcinoma): did not produce radiation enhancement

COC(=O)c1ccccc1-c1c2ccc(=N)cc-2oc2cc(N)ccc12 [rhodamine 123]
effects of continuous exposure (cells): inhibit oxidative phosphorylation, to arrest cells in G1 phase, and to induce loss of reproductive capacity
cell surviving fraction, initial 4 hour exposure (HeLa S-3 cells [4]; 10 μg/ml, 4 hours, 37° C., glucose-fed or glucose-deprived): no appreciable reduction in the cell surviving fraction
cell survival at 37° C., exposure limit (HeLa S-3 cells [4]; 37° C., 4 hour): did not produce any detectable reduction in cell survival
effect on hyperthermic cytotoxicity, glucose-deprived vs glucose-fed cells (HeLa S-3 cells [4]; 40, 41 and 42° C., up to 4 hours): selectively increased the cytotoxic effects of hyperthermia in glucose-deprived cells relative to glucose-fed cells
viability at 10 µg/mL (HeLa S-3 cells [4]; 10 μg/ml, 37° C., glucose-deprived, read-out: surviving fraction in the absence of glucose): < 1%
viability at 10 µg/mL (HeLa S-3 cells [4]; 10 μg/ml, 37° C., glucose-fed, read-out: surviving fraction in the presence of glucose): 80%
cytotoxicity at acidic pH relative to pH 7.4 (HeLa S-3 cells [4]; [6]): less than that observed at pH 7.4
influence of acidic pH on cytotoxicity of heat (HeLa S-3 cells [4]; [6]): did not substantially enhance the cytotoxicity of heat in glucose-deprived cells
dependence of potentiation of heat effects (HeLa S-3 cells [4]; glucose-deprived cells, two hours): dependent on the elevated temperature and drug concentration in glucose-deprived cells
hyperthermia enhancement in glucose-fed cells (HeLa S-3 cells [4]; glucose-fed, different temperatures for two hours): No hyperthermia enhancement
hyperthermic sensitization (HeLa S-3 cells [4]; [5]): effective hyperthermic sensitizers of human cancer cells
